35 compounds from BindingDB's records for doi:10.1016/j.bmc.2019.115216 (National and Kapodistrian University of Athens, 2020) can be followed below.

The target of this assay is Autotaxin (ENPP2) (Mus musculus) (UniProt Q9R1E6). Put plainly: Inhibition of recombinant mouse N-terminal polyHis-tagged ATX-beta (Ser49 to Ile862 residues) expressed in HEK293 cells assessed as reduction in cleavage of LPC into LPA and choline using LPC(16:0) as substrate by Amplex red reagent based fluorescence assay.

A value given as a limit tells only on which side of the number the result lay.

The IC50 is the concentration at which inhibition is half-maximal. `O=C(O)c1ccc(COc2ccc(CNC(=O)[C@@H]3CCC(=O)N3Cc3ccccc3)cc2)cc1`: the IC50 is 4.5 µM.
Then `O=C(O)c1ccc(COc2ccc(CNC(=O)[C@H]3CCC(=O)N3Cc3ccccc3)cc2)cc1`, with more than 5 µM; and `O=C(O)c1ccc(COc2ccc(CNC(=O)[C@@H]3CCC(=O)N3Cc3ccc(Br)cc3)cc2)cc1`, with more than 5 µM; and `O=C(O)c1ccc(COc2ccc(CNC(=O)[C@@H]3CCC(=O)N3Cc3ccc(F)cc3)cc2)cc1`, with more than 5 µM.
Then `O=C(O)c1ccc(COc2ccc(CNC(=O)[C@@H]3CCC(=O)N3Cc3ccc(C(F)(F)F)cc3)cc2)cc1`, with more than 5 µM; and `O=C1CC[C@@H](C(=O)NCc2ccc(OCc3ccc(C(=O)O)cc3)cc2)N1`, with more than 5 µM; and `COC(=O)c1ccc(COc2ccc(CNC(=O)[C@@H]3CCC(=O)N3Cc3ccccc3)cc2)cc1`, with more than 5 µM.
Then `NS(=O)(=O)c1ccc(COc2ccc(CNC(=O)[C@@H]3CCC(=O)N3Cc3ccccc3)cc2)cc1`, with more than 5 µM.
Take `NS(=O)(=O)c1ccc(COc2ccc(CNC(=O)[C@@H]3CCC(=O)N3Cc3ccc(F)cc3)cc2)cc1`: the IC50 was more than 5 µM.
Turning to `NS(=O)(=O)c1ccc(COc2ccc(CNC(=O)[C@@H]3CCC(=O)N3Cc3ccc(C(F)(F)F)cc3)cc2)cc1`, the IC50 was more than 5 µM.
Then `CC1(C)OB(c2ccc(COc3ccc(CNC(=O)[C@@H]4CCC(=O)N4Cc4ccccc4)cc3)cc2)OC1(C)C`, with 0.05 µM.
For `CC1(C)OB(c2ccc(COc3ccc(CNC(=O)[C@@H]4CCC(=O)N4Cc4ccc(F)cc4)cc3)cc2)OC1(C)C`, the IC50 stood at 0.12 µM.
Then `CC1(C)OB(c2ccc(COc3ccc(CNC(=O)[C@H]4CCC(=O)N4Cc4ccccc4)cc3)cc2)OC1(C)C`, with 0.18 µM; and `O=C(NCc1ccc(OCc2ccccc2)cc1)[C@@H]1CCC(=O)N1Cc1ccccc1`, with more than 5 µM.
With `O=C(NCCc1c[nH]cn1)c1ccc(COc2ccc(CNC(=O)[C@@H]3CCC(=O)N3Cc3ccccc3)cc2)cc1` the figure was more than 5 µM; with `O=C(NCCc1c[nH]cn1)c1ccc(COc2ccc(CNC(=O)[C@@H]3CCC(=O)N3Cc3ccc(F)cc3)cc2)cc1`, more than 5 µM; with `O=C(NO)c1ccc(COc2ccc(CNC(=O)[C@@H]3CCC(=O)N3Cc3ccccc3)cc2)cc1`, 0.7 µM.
With `O=C(NCc1ccc(OCc2ccc(-c3nn[nH]n3)cc2)cc1)[C@@H]1CCC(=O)N1Cc1ccccc1` the figure was more than 5 µM.
As for `O=C(NCc1ccc(OCc2ccc(-c3nn[nH]n3)cc2)cc1)[C@@H]1CCC(=O)N1Cc1ccc(F)cc1`, the IC50 was more than 5 µM.
With `O=C(NCc1ccc(OCc2cn(-c3ccccc3)nn2)cc1)[C@@H]1CCC(=O)N1Cc1ccccc1` the figure was more than 5 µM; with `O=C(NCc1ccc(OCc2ccncc2)cc1)[C@@H]1CCC(=O)N1Cc1ccccc1`, more than 5 µM.
With `O=C(NCc1ccc(OCc2ccc(B(O)O)cc2)cc1)[C@@H]1CCC(=O)N1Cc1ccccc1` the figure was 0.035 µM.
Then `O=C(O)c1ccc(COc2ccc(CN3C(=O)CC[C@H]3C(=O)NCc3ccccc3)cc2)cc1`, with more than 5 µM; and `O=C(NCc1ccccc1)[C@@H]1CCC(=O)N1Cc1ccc(OCc2ccc(-c3nn[nH]n3)cc2)cc1`, with more than 5 µM.
Turning to `NS(=O)(=O)c1ccc(C(=O)NC[C@@H]2CCC(=O)N2Cc2ccccc2)cc1`, the IC50 is more than 5 µM.
Then `COC(=O)c1ccc(COc2ccc(CN3C(=O)CC[C@H]3Cn3ccnc3)cc2)cc1`, with more than 5 µM; and `O=C(O)c1ccc(COc2ccc(CN3C(=O)CC[C@H]3Cn3ccnc3)cc2)cc1`, with more than 5 µM.
With `O=C(NCc1ccccc1)[C@@H]1CCC(=O)N1Cc1ccccc1` the figure was more than 5 µM; with `O=C(NCc1ccc(O)cc1)[C@@H]1CCC(=O)N1Cc1ccccc1`, more than 5 µM.
Turning to `O=C(O)c1ccc(COc2ccc(CNC(=O)[C@@H]3CCCN3Cc3ccccc3)cc2)cc1`, the IC50 was more than 5 µM.
Then `O=C(O)c1ccc(COc2ccc(CNC(=O)[C@@H]3CCCN3Cc3ccc(F)cc3)cc2)cc1`, with 0.8 µM.
Regarding `O=C(O)c1ccc(COc2ccc(CNC(=O)[C@H]3CCCN3Cc3ccc(F)cc3)cc2)cc1`, the IC50 is more than 5 µM.
Turning to `O=C(NCc1ccc(OCc2ccc(-c3nn[nH]n3)cc2)cc1)[C@@H]1CCCN1Cc1ccccc1`, the IC50 was more than 5 µM.
Regarding `O=C(O)c1ccc(COc2ccc(CN3CCC[C@H]3C(=O)NCc3ccccc3)cc2)cc1`, the IC50 was more than 5 µM.
Then `O=C(NCc1ccccc1)[C@@H]1CCCN1Cc1ccc(OCc2ccc(-c3nn[nH]n3)cc2)cc1`, with more than 5 µM.
